ChEMBL document CHEMBL5625197, “The mystery of titan hunter: Rationalized striking of the MAPK pathway via Newly synthesized 6-Indolylpyridone-3-Carbonitrile derivatives” (Eur J Med Chem, 2023)

Assays:
[1] = test system: HCT-116; test: cells; format: functional; conditions: Homo sapiens, HCT-116, 96 h, time 4 day, read-out: GI
Description: Growth inhibition of human HCT-116 cells at 10 uM incubated for 4 days by MTT assay relative to control

[2] = test system: SR; test: cells; format: functional; conditions: Homo sapiens, 96 h, time 4 day, read-out: GI
Description: Growth inhibition of human SR cells at 10 uM incubated for 4 days by MTT assay relative to control

[3] = test system: RXF 393; test: cells; format: functional; conditions: Homo sapiens, RXF 393, 96 h, time 4 day, read-out: GI
Description: Growth inhibition of human RXF 393 cells at 10 uM incubated for 4 days by MTT assay relative to control

[4] = test system: HOP-92; test: cells; format: functional; conditions: Homo sapiens, HOP-92, 96 h, time 4 day, read-out: GI
Description: Growth inhibition of human HOP-92 cells at 10 uM incubated for 4 days by MTT assay relative to control

[5] = test system: HCT-116; test: Cytotoxicity against human HCT-116 cells assessed as cell growth inhibition incubated for 4 days by MTT assay; format: functional; conditions: HCT-116, 96 h, time 4 day
[6] = test system: RXF 393; test: Cytotoxicity against human RXF 393 cells assessed as cell growth inhibition incubated for 4 days by MTT assay; format: functional; conditions: RXF 393, 96 h, time 4 day
[7] = Cytotoxicity against human MRC5 cells assessed as cell growth inhibition incubated for 4 days by MTT assay
[8] = Cytotoxicity against human HEK293 cells assessed as cell growth inhibition incubated for 4 days by MTT assay
[9] = Selectivity index, ratio of GI50 for cytotoxicity against human FHC cells to GI50 for cytotoxicity against human HCT-116 cells; format: toxicity, cell-based; conditions: FHC cells versus HCT-116 cells, read-out: RatioGI50
[10] = Cytotoxicity against human PCS-800-011 cells assessed as cell growth inhibition incubated for 4 days by MTT assay
[11] = Selectivity index, ratio of GI50 for cytotoxicity against human HEK293 cells to GI50 for cytotoxicity against human RXF 393 cells
[12] = Cytotoxicity against human PCS-800-011 cells assessed as fold change in cell growth inhibition incubated for 4 days by MTT assay; format: toxicity, cell-based; conditions: pcs-800-011, 96 h, time 4 day
[13] = test system: SR; test: Cytotoxicity against human SR cells assessed as cell growth inhibition incubated for 4 days by MTT assay; format: functional; conditions: 96 h, time 4 day
[14] = Selectivity index, ratio of GI50 for cytotoxicity against human PCS-800-011 cells to GI50 for cytotoxicity against human SR cells; format: toxicity, cell-based; conditions: PCS-800-011 cells versus SR cells, read-out: RatioGI50
[15] = Selectivity index, ratio of GI50 for cytotoxicity against human MRC5 cells to GI50 for cytotoxicity against human HOP-92 cells
[16] = test system: HOP-92; test: Cytotoxicity against human HOP-92 cells assessed as cell growth inhibition incubated for 4 days by MTT assay; format: functional; conditions: HOP-92, 96 h, time 4 day
[17] = Cytotoxicity against human FHC cells assessed as cell growth inhibition incubated for 4 days by MTT assay
[18] = test system: HOP-92; test: Induction of cell cycle arrest in human HOP-92 cells assessed as accumulation of cells at S phase (reference value: 29.57 %); format: functional
[19] = test system: HOP-92; test: Induction of apoptosis in human HOP-92 cells assessed as fold change in TNFR1 gene expression by RT-PCR analysis; format: functional
[20] = test system: HOP-92; test: Induction of cell cycle arrest in human HOP-92 cells assessed as cell aggregation (reference value: 1.77 %); format: functional
[21] = test system: HOP-92; test: Induction of apoptosis in human HOP-92 cells assessed as necrosis rate by Annexin V/ PI staining based flow cytometry (reference value: 1.6 %); format: functional
[22] = test system: HOP-92; test: Induction of cell cycle arrest in human HOP-92 cells assessed as accumulation of cells at G2/M phase (reference value: 15.6 %); format: functional
[23] = test system: HOP-92; test: Induction of cell cycle arrest in human HOP-92 cells assessed as accumulation of cells at G0/G1 phase (reference value: 54.83 %); format: functional
[24] = test system: HOP-92; test: Induction of apoptosis in human HOP-92 cells assessed as late apoptotic rate by Annexin V/ PI staining based flow cytometry (reference value: 0.26 %); format: functional
[25] = test system: HOP-92; test: Induction of apoptosis in human HOP-92 cells assessed as fold change in Bax gene expression by RT-PCR analysis; format: functional
[26] = test system: HOP-92; test: Induction of apoptosis in human HOP-92 cells assessed as fold change in caspase-9 gene expression by RT-PCR analysis; format: functional
[27] = test system: HOP-92; test: Induction of apoptosis in human HOP-92 cells assessed as fold change in ratio of Bax/Bcl-2 gene expression by RT-PCR analysis; format: functional
[28] = test system: HOP-92; test: Induction of apoptosis in human HOP-92 cells assessed as total apoptotic rate by Annexin V/ PI staining based flow cytometry (reference value: 2.28 %); format: functional
[29] = test system: HOP-92; test: Induction of apoptosis in human HOP-92 cells assessed as early apoptotic rate by Annexin V/ PI staining based flow cytometry (reference value: 0.42 %); format: functional
[30] = test system: HOP-92; test: Induction of apoptosis in human HOP-92 cells assessed as fold change in Bcl-2 gene expression by RT-PCR analysis; format: functional
[31] = test system: HOP-92; test: Inhibition of cell migration in human HOP-92 cells assessed as fold decrease in cell count incubated for 15 to 20 mins by crystal violet staining based trans-well assay; format: functional; conditions: time 15-20 min
[32] = test system: HOP-92; test: Induction of apoptosis in human HOP-92 cells assessed as fold change in caspase-8 gene expression by RT-PCR analysis; format: functional
[33] = test system: HOP-92; test: Inhibition of cell invasion in human HOP-92 cells incubated for 15 to 20 mins by crystal violet staining based trans-well assay relative to control; format: functional; conditions: time 15-20 min
[34] = test system: HOP-92; test: Induction of apoptosis in human HOP-92 cells assessed as fold change in caspase-3 gene expression by RT-PCR analysis; format: functional
[35] = test system: HOP-92; test: Inhibition of cell migration in human HOP-92 cells incubated for 15 to 20 mins by crystal violet staining based trans-well assay relative to control; format: functional; conditions: time 15-20 min
[36] = test system: HOP-92; test: Induction of apoptosis in human HOP-92 cells assessed as fold change in PARP1 gene expression by RT-PCR analysis; format: functional
[37] = test system: HOP-92; test: Induction of apoptosis in human HOP-92 cells assessed as fold change in p53 gene expression by RT-PCR analysis; format: functional
[38] = test system: HOP-92; test: Inhibition of colony formation in human HOP-92 cells incubated for 24 hrs by crystal violet staining based assay relative to control; format: functional
[39] = test system: HOP-92; test: Induction of cell cycle arrest in human HOP-92 cells assessed as cell debris (reference value: 2.18 %); format: functional
[40] = molecular target: Hepatocyte growth factor receptor (Homo sapiens, UniProt P08581); test: Inhibition of c-Met (unknown origin)

N#Cc1c(-c2ccccc2Cl)cc(-c2c[nH]c3ccccc23)[nH]c1=O
inhibition of growth at 10 µM [1]: 47.6% | inhibition of growth at 10 µM [2]: 90% | inhibition of growth at 10 µM [3]: 51.3% | inhibition of growth at 10 µM [4]: 55.1%

N#Cc1c(-c2ccc(C(F)(F)F)cc2)cc(-c2c[nH]c3ccccc23)[nH]c1=O
inhibition of growth at 10 µM [1]: 67.5% | inhibition of growth at 10 µM [2]: 48.5% | inhibition of growth at 10 µM [3]: 71.6% | inhibition of growth at 10 µM [4]: 56.7%

N#Cc1c(-c2ccc(O)c(O)c2)cc(-c2c[nH]c3ccccc23)[nH]c1=O
inhibition of growth at 10 µM [1]: 9.54% | inhibition of growth at 10 µM [2]: 69.8% | inhibition of growth at 10 µM [3]: 11% | inhibition of growth at 10 µM [4]: 31.2%

COc1cc(-c2cc(-c3c[nH]c4ccccc34)[nH]c(=O)c2C#N)ccc1O
inhibition of growth at 10 µM [1]: 64.4% | inhibition of growth at 10 µM [2]: 52.1% | inhibition of growth at 10 µM [3]: 65% | inhibition of growth at 10 µM [4]: 53.5%

N#Cc1c(-c2cccc(Cl)c2Cl)cc(-c2c[nH]c3ccccc23)[nH]c1=O
GI50 [5]: 8.12 µM | GI50 [6]: 16.1 µM | GI50 at 96 h [7]: 71.3 µM | GI50 at 96 h [8]: 61 µM | inhibition of growth at 10 µM [1]: 81.7% | selectivity ratio [9]: 8.09 | GI50 at 96 h [10]: 83.4 µM | RatioGI50 [11]: 3.8 | fold change (FC) [12]: 4 | GI50 [13]: 22.3 µM | selectivity ratio [14]: 3.74 | RatioGI50 [15]: 4.62 | inhibition of growth at 10 µM [2]: 57.6% | GI50 [16]: 15.4 µM | inhibition of growth at 10 µM [3]: 63.2% | inhibition of growth at 10 µM [4]: 77.8% | GI50 at 96 h [17]: 65.7 µM

N#Cc1c(-c2cccc(Cl)c2)cc(-c2c[nH]c3ccccc23)[nH]c1=O
inhibition of growth at 10 µM [1]: 51.1% | inhibition of growth at 10 µM [2]: 71.9% | inhibition of growth at 10 µM [3]: 67.5% | inhibition of growth at 10 µM [4]: 38.6%

CN[C@@H]1C[C@H]2O[C@@](C)([C@@H]1OC)n1c3ccccc3c3c4c(c5c6ccccc6n2c5c31)C(=O)NC4 [STAUROSPORINE]
GI50 [6]: 0.95 µM

N#Cc1c(-c2cccnc2)cc(-c2c[nH]c3ccccc23)[nH]c1=O
inhibition of growth at 10 µM [1]: 9.94% | inhibition of growth at 10 µM [2]: 13.2% | inhibition of growth at 10 µM [3]: -0.69% | inhibition of growth at 10 µM [4]: 13%

N#Cc1c(-c2ccccc2[N+](=O)[O-])cc(-c2c[nH]c3ccccc23)[nH]c1=O
inhibition of growth at 10 µM [1]: 59.5% | inhibition of growth at 10 µM [2]: 69% | inhibition of growth at 10 µM [3]: 64.8% | inhibition of growth at 10 µM [4]: 68.5%

COc1cccc2c1C(=O)c1c(O)c3c(c(O)c1C2=O)C[C@@](O)(C(=O)CO)C[C@@H]3O[C@H]1C[C@H](N)[C@H](O)[C@H](C)O1 [DOXORUBICIN]
Activity [18]: 21.73% | fold change (FC) [19]: 0.24 | Activity [20]: 2.15% | Activity [21]: 9.28% | Activity [22]: 29.74% | Activity [23]: 48.53% | Activity [24]: 26.57% | fold change (FC) [25]: 6.62 | fold change (FC) [26]: 12.4 | fold change (FC) [27]: 21.4 | Activity [28]: 52.49% | Activity [29]: 16.64% | fold change (FC) [30]: 0.31 | fold change (FC) [31]: 3.8 | fold change (FC) [32]: 4.36 | inhibition (INH) [33]: 41.96% | fold change (FC) [34]: 14.3 | inhibition (INH) [35]: 73.54% | fold change (FC) [36]: 0.23 | fold change (FC) [37]: 6.97 | inhibition (INH) [38]: 44.9% | Activity [39]: 2.44%

N#Cc1c(-c2ccc(Cl)c(Cl)c2)cc(-c2c[nH]c3ccccc23)[nH]c1=O
GI50 [5]: 10.6 µM | GI50 [6]: 16.6 µM | GI50 at 96 h [7]: 56.1 µM | GI50 at 96 h [8]: 42.6 µM | inhibition of growth at 10 µM [1]: 76.5% | selectivity ratio [9]: 3.86 | GI50 at 96 h [10]: 73.6 µM | RatioGI50 [11]: 2.56 | fold change (FC) [12]: 3.5 | GI50 [13]: 9.17 µM | selectivity ratio [14]: 8.02 | RatioGI50 [15]: 16.3 | inhibition of growth at 10 µM [2]: 71.8% | GI50 [16]: 3.44 µM | inhibition of growth at 10 µM [3]: 75.8% | inhibition of growth at 10 µM [4]: 73.3% | GI50 at 96 h [17]: 41 µM

N#Cc1c(-c2cccc([N+](=O)[O-])c2)cc(-c2c[nH]c3ccccc23)[nH]c1=O
inhibition of growth at 10 µM [1]: 6.36% | inhibition of growth at 10 µM [2]: 18.1% | inhibition of growth at 10 µM [3]: 16.9% | inhibition of growth at 10 µM [4]: 9.93%

N#Cc1c(-c2ccc(F)c(F)c2)cc(-c2c[nH]c3ccccc23)[nH]c1=O
inhibition of growth at 10 µM [1]: 51% | inhibition of growth at 10 µM [2]: 55.9% | inhibition of growth at 10 µM [3]: 65.7% | inhibition of growth at 10 µM [4]: 53.1%

CCOc1ccn(-c2ccc(F)cc2)c(=O)c1C(=O)Nc1ccc(Oc2ccnc(N)c2Cl)c(F)c1 [BMS-777607]
IC50 [40]: 0.128 µM
